{
  "source": "patent US20180353505A1",
  "about": "“COMPATIBLE SOLUTE OR SOLUTE MIXTURE FOR USE IN THE PREVENTION OR TREATMENT OF DISEASES HAVING BARRIER DEFECTS IN EPITHELIAL TISSUES” (bitop AG, priority 2015, published 2018)",
  "key": {"[1]": {"tested_on": "epithelial cells of oral mucosa (TR146)", "experiment": "TEER of TR146 monolayer after 12 h incubation, no stress (FIG. 2)", "type": "cell-based, human", "protocol": "(§1) A defined strength (U) of a direct current (DC) is applied between two electrodes E1 and E2 for determination of TEER, wherein the single-layered cell layer (monolayer) is arranged between the two electrodes (FIG. 1), such that the applied direct current (DC) flows through the cells. The measurement of TEER is made by an epithelial voltmeter (EVOM2). The resulting current I is measured according to the ohmic resistance R, wherein R=U/I (Benson K, Cramer S, Galla H J (2013) Impedance-based cell monitoring: Barrier properties and beyond. FluidsBarriers, 10:5.).\nFor this purpose, in in vitro experiments, epithelial tissues were sown on special cell culture carrier having a membrane (ThinCerts, pore size 0.4 μm) and cultured to a closed, single-layered cell layer (synonymously epithelial monolayer) on the membrane (FIG. 1).\n(§2) The intact epithelial monolayer was respectively controlled by a TEER measurement. If no increase were measured in the TEER over two days, the epithelial cells have formed an intact epithelial monolayer having intact epithelial barrier (selective permeability barrier).\nIn order to measure effects of ectoine on barrier function, in particular membrane integrity, TR146 cells of an intact epithelial monolayer were incubated in cell culture medium with PBS (control), with 50 mM ectoine and with 0.1% lecithin (positive control) for 12 hours (h)."}, "[2]": {"tested_on": "epithelial cells of the oral mucosa (TR146)", "experiment": "TEER of TR146 monolayer after overnight incubation and 0.005% SDS stress (FIG. 3)", "type": "cell-based, human", "conditions": "then 0.005% SDS", "protocol": "as §1, with “10:5.). […]” for “10:5.).”\nas §2\nIn order to subsequently measure the effect of ectoine on membrane stability under the influence of chemicals, an intact epithelial monolayer of epithelial cells of the oral mucosa (TR146) were incubated in cell culture medium with PBS (control), with 50 mM ectoine and with 0.1% lecithin (positive control) over night. Subsequently, stress treatment was made with 0.005% SDS and change of the transepithelial electric resistance [Ohm] was monitored hourly (FIG. 3)."}, "[3]": {"tested_on": "porcine renal epithelial cells (LLC-PK1)", "experiment": "TEER of LLC-PK1 monolayer after overnight incubation and BAK stress (FIG. 4)", "type": "cell-based", "conditions": "LLC-PK1, 50 mM ectoine over night, then BAK stress", "protocol": "as §1, with “10:5.). […]” for “10:5.).”\nas §2\nAdditionally, an intact epithelial monolayer of porcine renal epithelial cells (LLC-PK1) was also incubated in cell culture medium with PBS (control), with 50 mM ectoine and with 0.1% lecithin (positive control) over night. Subsequently, stress treatment was made with 0.001% BAK and change of the transepithelial electric resistance [Ohm] was monitored hourly (FIG. 4)."}, "[4]": {"tested_on": "human keratinocytes (HaCaT)", "experiment": "TEER of HaCaT monolayer after overnight incubation and air drying (FIG. 5)", "type": "cell-based", "conditions": "preincubation with ectoine (50/100 mM), air drying 5 min at RT, rehydration, 24 h with OVA", "protocol": "as §1, with “10:5.). […]” for “10:5.).”\nas §2\nIn a further experiment, an intact epithelial monolayer of human keratinocytes (HaCaT) was also incubated in cell culture medium with PBS (control), with 50 mM ectoine and with 100 mM ectoine over night. […] After air drying at RT under sterile conditions, the cells were overlaid with medium including OVA allergen (250 μg/ml) and incubated at 37° C. in the incubator for 24 hours and subsequently the TEER value was measured."}, "[5]": {"tested_on": "rabbit corneal epithelial cells (SIRC)", "experiment": "Allergy prevention assay (APA), OVA penetration, SIRC monolayer", "type": "cell-based", "excerpt": "(§3) The cell culture vessel (6) comprises an inner (7) and an outer (5) reservoir, wherein the two compartment are partitioned by a transparent ThinCerts membrane (5) having a pore size of 0.4 μm. This pore size allows for cytokine and protein movement between the outer and inner reservoir (FIG. 6.) Eukaryotic cells may not pass through this membrane thus forming a single-layered closed cell layer which covers the whole membrane. In doing so, an arrangement is achieved by the experimental setup which reflects the apical side (outer reservoir) and basolateral side (inner reservoir within the inset) of epithelial cells. However, allergens, such as e.g. ovalbumin (OVA), may pass the membrane without problems due to their low molecule size.\nIf a closed epithelial cell layer is present, OVA may only pass this membrane barrier through “gaps”, tight junction or transcytosis from the apical to the basolateral side. (Ding L, Zhang Y, Jiang Y, Wang L, Liu B, Liu J (2014) Transport of egg white ACE-Inhibitory peptide, Gln-Ile-Gly-Leu-Phe, in human intestinal Caco-2 cell monolayers with cytoprotective effect. J Agric Food Chem (Epub ahead of print)).\nThe cells of the respective cell line (see Table 3) were cultivated on a membrane (3) (FIG. 6) until formation of a closed single-layered cell layer (2) (synonymously epithelial monolayer). Subsequently, the epithelial monolayer was pretreated with ectoine (10, 50, 100 mM) in cell culture medium for 6 hours. After pretreatment with ectoine, the epithelia monolayer was incubated with 250 μg/ml of the allergen OVA (FIG. 6) over night. Subsequently, the OVA content was measured in the inner and outer reservoir by means of OVA-specific ELISA and the relative penetration of the epithelial monolayer with OVA in pretreated and non-treated cells was determined."}, "[6]": {"tested_on": "human keratinocytes (HaCaT)", "experiment": "Allergy prevention assay (APA), OVA penetration, HaCaT monolayer", "type": "cell-based", "conditions": "OVA + 10 mM ectoine", "excerpt": "as §3\n(§4) If a closed epithelial cell layer is present, OVA may only pass this membrane barrier through “gaps”, tight junction or transcytosis from the apical to the basolateral side. […]\n(§5) The cells of the respective cell line (see Table 3) were cultivated on a membrane (3) (FIG. 6) until formation of a closed single-layered cell layer (2) (synonymously epithelial monolayer). […] Subsequently, the OVA content was measured in the inner and outer reservoir by means of OVA-specific ELISA and the relative penetration of the epithelial monolayer with OVA in pretreated and non-treated cells was determined."}, "[7]": {"tested_on": "epithelial cells of the oral mucosa (TR146)", "experiment": "Allergy prevention assay (APA), OVA penetration, TR146 monolayer", "type": "cell-based, human", "conditions": "TR146, OVA + 100 mM ectoine", "excerpt": "as §3, §4, §5"}, "[8]": {"tested_on": "human nasal mucosa epithelial cells (RPMI-2650)", "experiment": "Allergy prevention assay (APA), OVA penetration, RPMI-2650 monolayer", "type": "cell-based", "excerpt": "as §3, §4, §5"}, "[9]": {"tested_on": "rat bronchial epithelial cells (RLE)", "experiment": "Allergy prevention assay (APA), OVA penetration, RLE monolayer", "type": "cell-based", "excerpt": "as §3, §4, §5"}, "[10]": {"tested_on": "HaCaT (drying stress)", "experiment": "Allergy prevention assay (APA) with drying stress, HaCaT monolayer", "type": "cell-based, human", "excerpt": "as §3, §4\nas §5, with “determined. […]” for “determined.”"}, "[11]": {"tested_on": "Claudin-1", "experiment": "Claudin-1 expression in HaCaT monolayer after heat stress (ELISA)", "type": "cell-based, human", "protocol": "The HaCaT cell line was cultured in a plastic cell culture vessel until a closed single-layered cell layer (HaCaT monolayer) was formed. Subsequently, the monolayer was pretreated with 50 mM or 100 mM ectoine in cell culture medium for 6 hours (h). After pretreatment, temperature treatment of the cells was made at 44° C. for 30 min. After heat stress, the monolayer was again incubated in the incubator at 37° C. for 24 hours. Subsequently, the HaCaT monolayer was harvested and, after lysis by means of cryoshock (freezing, unfreezing and scraping with spatula), the lysate was analysed for Claudin-1 by means of ELISA."}},
  "note": "Several values for one entry are separate records, joined by “and”; a condition that tells them apart may be missing. Equal values may be shown once.",
  "data": [
    {"compound": "CC1=NC(C(=O)O)CCN1", "note": "(stereo not shown) [ectoine, 1,4,5,6-tetrahydro-2-methyl-4-pyrimidine carboxylic acid]", "values": [
      {"measurement": "TEER value", "setting": "[1]; TR146, 50 mM ectoine", "value": 215, "unit": "Ohm"},
      {"measurement": "TEER", "setting": "[2]; TR146, 50 mM ectoine over night", "value": 215, "unit": "Ohm"},
      {"measurement": "Effect on TEER / membrane stability", "setting": "[3]", "value": "stabilization of the membrane of epithelial cells LLC-PK1 is already achieved"},
      {"measurement": "TEER", "setting": "[4]", "value": "approx. 180 Ohm"},
      {"measurement": "Penetrations protection (as compared to PBS) [%] +/− SD", "setting": "[5]; OVA + 10 mM ectoine", "value": "0 +/− 11.52%"},
      {"measurement": "Penetrations protection (as compared to PBS) [%] +/− SD", "setting": "[5]; OVA + 50 mM ectoine", "value": "16.3 +/− 2.31%"},
      {"measurement": "Penetrations protection (as compared to PBS) [%] +/− SD", "setting": "[5]; OVA + 100 mM ectoine", "value": "up to 50%"},
      {"measurement": "Penetrations protection (as compared to PBS) [%] +/− SD", "setting": "[6]", "value": "−0.61 +/− 0.1%"},
      {"measurement": "Penetrations protection (as compared to PBS) [%] +/− SD", "setting": "[7]", "value": "13.44 +/− 7.69%"},
      {"measurement": "Penetrations protection (as compared to PBS) [%] +/− SD", "setting": "[8]; OVA + 10 mM ectoine", "value": "23.5 +/− 17.1%"},
      {"measurement": "Penetrations protection (as compared to PBS) [%] +/− SD", "setting": "[8]; OVA + 100 mM ectoine", "value": "up to 50%"},
      {"measurement": "Penetrations protection (as compared to PBS) [%] +/− SD", "setting": "[9]; OVA + 50 mM ectoine", "value": "−6.3 +/−7.91^ %"},
      {"measurement": "Penetrations protection (as compared to PBS) [%] +/− SD", "setting": "[9]; OVA + 100 mM ectoine", "value": "−124.5 +/− 3.72%"},
      {"measurement": "Penetrations protection (as compared to PBS) [%] +/− SD", "setting": "[10]; OVA + 50 mM ectoine", "value": "12% and 8.1 +/− 8.01%"},
      {"measurement": "Penetrations protection (as compared to PBS) [%] +/− SD", "setting": "[10]; OVA + 100 mM ectoine", "value": "11.6 +/− 6.25%"},
      {"measurement": "Claudin-1 expression, factor over medium and PBS without ectoine", "setting": "[11]; 100 mM ectoine, 24 hours", "value": 3},
      {"measurement": "Claudin-1 expression [Claudin-1] +/− SD", "setting": "[11]; Ectoine 100 mM 6 h, 44° C. 30 min, 24 h at 37° C.", "value": 0.22, "unit": "ng/ml +/− 0.006"}
    ]},
    {"compound": "lecithin [reference compound]", "values": [
      {"measurement": "TEER value", "setting": "[1]; TR146, 0.1% lecithin (positive control)", "value": 225, "unit": "Ohm"},
      {"measurement": "TEER", "setting": "[2]; TR146, 0.1% lecithin over night", "value": 225, "unit": "Ohm"}
    ]}
  ]
}
